Here are results for 11 substances from PMC5701947, “β1-Adrenergic Receptor Contains Multiple IA^k and IE^k Binding Epitopes That Induce T Cell Responses with Varying Degrees of Autoimmune Myocarditis in A/J Mice” (Frontiers in Immunology, 2017).

Test [1] concerns T cells (lymph node cells/splenocytes from immunized animals). Kind of test: T cell proliferation assay ([3H]-thymidine). The class given is cell-based, A/J mice. As to conditions: for T cell responses: fold vs medium control; for T cell responses (in words): proliferation, 0–100 µg/ml, 2 days + 16 h [3H]-thymidine, cpm. As to the method:
At termination, lymph nodes (maxillary, mandibular, axillary, inguinal, and popliteal) and spleens were harvested from immunized animals to prepare single cell suspensions. Similarly, splenocytes were prepared from naive animals. After lysing the erythrocytes and washing, cell pellets were suspended in RPMI medium containing 10% fetal bovine serum, 1 mM sodium pyruvate, 4 mM L-glutamine, 1 × each of non-essential amino acids and vitamin mixture, and 100 U/ml penicillin–streptomycin (Lonza, Walkersville, MD, USA; hereafter called growth medium). In some experiments, CD4 T cells and CD8 T cells were enriched to a purity of ~95% by negative selection based on magnetic separation using IMAG (BD Biosciences, San Jose, CA, USA) ([31]). To stimulate CD4 and CD8 T cells, syngeneic naive irradiated splenocytes loaded with peptides were used as antigen-presenting cells at a ratio of 1:1. Cells were stimulated at a density of ~5 × 10^6 cells/ml in triplicates with or without the immunizing peptides (0–100 µg/ml) in growth medium. RNase 43–56 or HEL 46–61 were used as irrelevant controls. After 2 days, cells were pulsed with tritiated ^3[H]-thymidine (1 μCi/well; MP Biomedicals, Santa Ana, CA, USA), and 16 h later, proliferative responses were measured as counts per minute (cpm) using a Wallac liquid scintillation counter (Perkin Elmer, Waltham, MA, USA) ([26], [28], [30]).

The next test has as its system A/J mice (hearts). Put plainly: Induction of myocarditis by active immunization with peptides (histology). The class given is in vivo. As to conditions: for Myocarditis incidence / Myocarditis incidence (animals with disease/total) / Inflammatory foci: individual non-acetylated peptide, 100 µg per animal; for Myocarditis incidence / Myocarditis incidence (animals with disease/total): CFA/PT, days 0 and 7, day 21; for Inflammatory foci: mean ± SEM of myocarditic animals.

[2] abbreviates: 10 μg/ml, animals immunized with pool VIII.
[3] abbreviates: 100 μg/ml, animals immunized with pool VIII.
Setting [4] is: 10 μg/ml, animals immunized with pool IV.
Where [5] appears, read: 100 μg/ml, animals immunized with pool IV.
Where [6] appears, read: 10 μg/ml, animals immunized with pool V.
Setting [7] is: 100 μg/ml, animals immunized with pool V.

Consider “β1AR 381-400: 20-mer of mouse β1AR peptide library (CCARRAACRRRAAHGDRPRA; UniProt P34971 381-400, looked up, fragment)”, for which, in test [1] (setting [2]), the T cell responses turned out to be 1.10 fold. Further, the T cell responses in test [1] (setting [3]) worked out at 1.45 fold. In addition, the “T cell responses (in words)” value in test [1] is “did not show T cell responses”. In the test with A/J mice (hearts), the Myocarditis incidence turned out to be 0%, the “Myocarditis incidence (animals with disease/total)” value was 0/5 and the Inflammatory foci is reported as 0.

Turning to “β1AR 191-210: 20-mer of mouse β1AR peptide library (FLPILMHWWRAESDEARRCY; UniProt P34971 191-210, looked up, fragment)”, the T cell responses in test [1] (setting [4]) is listed as 1.26 fold. In addition, the T cell responses in test [1] (setting [5]) turned out to be 1.63 fold. Further, in the test on A/J mice (hearts), the Myocarditis incidence is 0%, the “Myocarditis incidence (animals with disease/total)” value is 0/5 and the Inflammatory foci came out at 0.

In turn, “β1AR 391-410: 20-mer of mouse β1AR peptide library (RAAHGDRPRASGCLARAGPP; UniProt P34971 391-410, looked up, fragment)” yielded a T cell responses in test [1] (setting [2]) of 1.03 fold. Besides, the T cell responses in test [1] (setting [3]) came out at 1.18 fold. Moreover, in test [1], the “T cell responses (in words)” value was “did not show T cell responses”. For the same substance, in the test on A/J mice (hearts), the Myocarditis incidence worked out at 0%, the “Myocarditis incidence (animals with disease/total)” value is given as 0/5 and the Inflammatory foci is reported as 0.

In the case of “β1AR 201-220: 20-mer of mouse β1AR peptide library (AESDEARRCYNDPKCCDFVT; UniProt P34971 201-220, looked up, fragment)”, the T cell responses in test [1] (setting [4]) is listed as 1.08 fold. The T cell responses in test [1] (setting [5]) came out at 1.37 fold. Also, in the test on A/J mice (hearts), the Myocarditis incidence is 0%, the “Myocarditis incidence (animals with disease/total)” value was 0/5 and the Inflammatory foci is reported as 0.

As to “β1AR 231-250: 20-mer of mouse β1AR peptide library (VSFYVPLCIMAFVYLRVFRE; UniProt P34971 231-250, looked up, fragment)”, the T cell responses in test [1] (setting [6]) was determined as 1.42 fold; in test [1] (setting [7]), 1.85 fold.

For the substance “β1AR 21-40: 20-mer of mouse β1AR peptide library (PLPDGAATAARLLVLASPPA; UniProt P34971 21-40, looked up, fragment)”, the T cell responses came to 1.33 fold in test [1] (10 μg/ml, animals immunized with pool I) and 1.43 fold in test [1] (100 μg/ml, animals immunized with pool I).

Turning to “β1AR 421-440: 20-mer of mouse β1AR peptide library (DDDAGTTPPARLLEPWTGCN; UniProt P34971 421-440, looked up, fragment)”, the T cell responses in test [1] (10 μg/ml, animals immunized with pool IX) was 1.12 fold; in test [1] (100 μg/ml, animals immunized with pool IX), 1.21 fold.

As for “β1AR 71-90: 20-mer of mouse β1AR peptide library (LIVVGNVLVIVAIAKTPRLQ; UniProt P34971 71-90, looked up, fragment)”, the T cell responses in test [1] (10 μg/ml, animals immunized with pool II) was found to be 2.71 fold; in test [1] (100 μg/ml, animals immunized with pool II), 3.78 fold.

On to “β1AR 361-380: 20-mer of mouse β1AR peptide library (FNPIIYCRSPDFRKAFQRLL; UniProt P34971 361-380, looked up, fragment)”, for which the T cell responses came to 2.06 fold in test [1] (10 μg/ml, animals immunized with pool VII) and 1.82 fold in test [1] (100 μg/ml, animals immunized with pool VII).

Consider “NDPKCCDFVTNRAYAIASSV [β1AR 211-230, 20-mer of mouse β1AR peptide library]”, for which, in test [1] (setting [4]), the T cell responses is 3.15 fold. This substance also had a T cell responses in test [1] (setting [5]) of 3.27 fold. Further, in the test on A/J mice (hearts) (individual immunization, non-acetylated peptides), the “Disease severity (in words)” value is given as “mild disease”. Also, in the test with A/J mice (hearts), the Myocarditis incidence worked out at 40%, the “Myocarditis incidence (animals with disease/total)” value was 2/5 and the Inflammatory foci came out at 2.0 ± 1.0.

Consider “β1AR 241-260: 20-mer of mouse β1AR peptide library (AFVYLRVFREAQKQVKKIDS; UniProt P34971 241-260, looked up, fragment)”, for which the T cell responses in test [1] (setting [6]) worked out at 1.52 fold; in test [1] (setting [7]) it was 2.02 fold.
